Assay results reported in US20230123334A1, “AMINO LIPID COMPOUND, PREPARATION METHOD THEREFOR, AND APPLICATION THEREOF” (SHENZHEN SHENXIN BIOTECHNOLOGY CO., LTD., priority 2020, published 2023).

System: HEK293 cells
Assay: Preliminary screening as DNA vectors, GFP transfection of HEK293 cells
Format: cell-based
Settings: amino lipid/DOPE liposome with 75 ng plasmid DNA (psin-EGFP-IRES-Puro); number of GFP-expressing cells divided by total nuclei (Hoechst)
Description: Cell line: HEK293 cells (ATCC CRL-1573™)
Medium: DMEM supplemented with 10% fetal bovine serum (Invitrogen)
Mode of screening: cell transfection on 96-well plates
Detection (readout): percentage of the number of GFP fluorescent cells relative to the total number of cells (the total number of cells was measured using nucleus dye Hoechst—see FIG. 2). Lipofectamine2000 (Invitrogen) was used as positive control, according to the manufacturer's instructions.
Method: an 8-channel pipette was used for sample addition. The contents shown were for a single well of a 96-well flat plate.
1. The compound (0.01 mmol) prepared in Example 1 was dissolved in 1 mL of anhydrous ethanol. After ultrasonically dissolved, 10 μL of the resultant amino lipid solution in ethanol was taken and mixed with 5 μL of DOPE solution in ethanol (0.01 m), and then to the obtained mixture was added 35 μL of 0.2M sodium acetate buffer (pH 5.6), and 50 μL of liposome solution was prepared by vortex at a constant rotating speed for 30 s. 4 μL was taken from the 50 μL liposome solution and added to 46 μL of 0.02M sodium acetate buffer (pH 5.6), and the final liposome solution was formed by vortex at a constant rotating speed for 30 s. 5 μL was taken from the final liposome solution and mixed with 75 ng plasmid DNA (psin-EGFP-IRES-Puro, Clontech) dissolved in 5 μL of 0.02 M sodium acetate buffer, and was allowed to stay at room temperature for 30 min to form a lipid/DNA transfection complex.
2. 10 μL of the lipid/DNA transfection complex was incubated at room temperature for 30 min, followed by addition of 90 μL of fresh resuspended cells (3-5×10^4 cells) and mixing with a pipette. 100 μL of cells+lipid/DNA complex was transferred to separate wells of a 96-well culture plate immediately, and placed in an incubator containing 5% CO2 at 37° C.
3. Hoechst33258 (Invitrogen) was added at a final concentration of 0.2 μg/mL to the cells 20 to 24 hours after initial cell transfection, and cultured in darkness at 37° C. for 15 min. Afterwards, the cells were washed once with a PBS solution, and then added with medium for culture for 20 to 24 h.
4. The cells were placed in a high-throughput confocal microscope (Molecular Devices ImageXpress), and four visual fields of the image of the cells were captured for each well, and images at three laser wavelengths were captured for each sample: bright field images of cells (FIG. 2(a) and FIG. 2(b)), Hoechst-staining images showing total nuclei (FIG. 2(c) and FIG. 2(d)) and GFP images showing success in transfection with the plasmid DNA and the expression of GFP (FIG. 2(e) and FIG. 2(f)). MetaXpress software was used to separately count the cells in the Hoechst-staining images and GFP images, and then the number of cells expressing GFP was divided by the total number of nuclei to give the absolute cell transfection efficiency. The absolute transfection efficiency was calculated as follows: […]

SMILES	Absolute DNA transfection efficiency in HEK293 cells [%]
CCCCCCCCCCCCCCCSc1nc(NCCCN(C)C)nc(SCCCCCC)n1 [S6S15 D6]	36.4
CCCCCCCCCCCCCCCSc1nc(NCCN(CC)CC)nc(SCCCCCC)n1 [S6S15 D7]	3.3
CCCCCCCCCCCCCCCSc1nc(NCCCN2CCOCC2)nc(SCCCCCC)n1 [S6S15 D8]	11.5
CCCCCCCCCCCCCCCSc1nc(NCCCN2CCN(C)CC2)nc(SCCCCCC)n1 [S6S15 D9]	8.3
CCCCCCCCCCCCCCCSc1nc(NCC2CCN(C)CC2)nc(SCCCCCC)n1 [S6S15 D10]	34.5
CCCCCCCCCCCCCCCCSc1nc(NCCN(C)C)nc(SCCCCCC)n1 [S6S16 D1]	8.4
CCCCCCCCCCCCCCCCSc1nc(NCCN2CCOCC2)nc(SCCCCCC)n1 [S6S16 D2]	24.0
CCCCCCCCCCCCCCCCSc1nc(NCCN2CCCC2)nc(SCCCCCC)n1 [S6S16 D3]	9.8
CCCCCCCCCCCCCCCCSc1nc(NCCN2CCCCC2)nc(SCCCCCC)n1 [S6S16 D4]	7.9
CCCCCCCCCCCCCCCCSc1nc(NCCN2CCN(C)CC2)nc(SCCCCCC)n1 [S6S16 D5]	15.2
CCCCCCCCCCCCCCCCSc1nc(NCCCN(C)C)nc(SCCCCCC)n1 [S6S16 D6]	0.4
CCCCCCCCCCCCCCCCSc1nc(NCCN(CC)CC)nc(SCCCCCC)n1 [S6S16 D7]	3.7
CCCCCCCCCCCCCCCCSc1nc(NCCCN2CCOCC2)nc(SCCCCCC)n1 [S6S16 D8]	0.0
CCCCCCCCCCCCCCCCSc1nc(NCCCN2CCN(C)CC2)nc(SCCCCCC)n1 [S6S16 D9]	3.9
CCCCCCCCCCCCCCCCSc1nc(NCC2CCN(C)CC2)nc(SCCCCCC)n1 [S6S16 D10]	37.6
CCCCCCCCCCCCCCCCCCSc1nc(NCCN(C)C)nc(SCCCCCC)n1 [S6S18 D1]	9.8
CCCCCCCCCCCCCCCCCCSc1nc(NCCN2CCOCC2)nc(SCCCCCC)n1 [S6S18 D2]	8.1
CCCCCCCCCCCCCCCCCCSc1nc(NCCN2CCCC2)nc(SCCCCCC)n1 [S6S18 D3]	13.8
CCCCCCCCCCCCCCCCCCSc1nc(NCCN2CCCCC2)nc(SCCCCCC)n1 [S6S18 D4]	10.4
CCCCCCCCCCCCCCCCCCSc1nc(NCCN2CCN(C)CC2)nc(SCCCCCC)n1 [S6S18 D5]	15.1
CCCCCCCCCCCCCCCCCCSc1nc(NCCCN(C)C)nc(SCCCCCC)n1 [S6S18 D6]	0.0

SMILES	Absolute DNA transfection efficiency in HEK293 cells [%]
CCCCCCCCCCCCCCCCCCSc1nc(NCCN(CC)CC)nc(SCCCCCC)n1 [S6S18 D7]	6.4
CCCCCCCCCCCCCCCCCCSc1nc(NCCCN2CCOCC2)nc(SCCCCCC)n1 [S6S18 D8]	15.9
CCCCCCCCCCCCCCCCCCSc1nc(NCCCN2CCN(C)CC2)nc(SCCCCCC)n1 [S6S18 D9]	8.7
CCCCCCCCCCCCCCCCCCSc1nc(NCC2CCN(C)CC2)nc(SCCCCCC)n1 [S6S18 D10]	34.7
CCCCCCCCCCCCN(CCCCCCCCCCCC)c1nc(NCCN(C)C)nc(SCCCCCC)n1 [S6^2N12 D1]	0.4
CCCCCCCCCCCCN(CCCCCCCCCCCC)c1nc(NCCN2CCOCC2)nc(SCCCCCC)n1 [S6^2N12 D2]	0.0
CCCCCCCCCCCCN(CCCCCCCCCCCC)c1nc(NCCN2CCCC2)nc(SCCCCCC)n1 [S6^2N12 D3]	0.1
CCCCCCCCCCCCN(CCCCCCCCCCCC)c1nc(NCCN2CCCCC2)nc(SCCCCCC)n1 [S6^2N12 D4]	0.1
CCCCCCCCCCCCN(CCCCCCCCCCCC)c1nc(NCCN2CCN(C)CC2)nc(SCCCCCC)n1 [S6^2N12 D5]	0.0
CCCCCCCCCCCCN(CCCCCCCCCCCC)c1nc(NCCCN(C)C)nc(SCCCCCC)n1 [S6^2N12 D6]	0.2
CCCCCCCCCCCCN(CCCCCCCCCCCC)c1nc(NCCN(CC)CC)nc(SCCCCCC)n1 [S6^2N12 D7]	0.3
CCCCCCCCCCCCN(CCCCCCCCCCCC)c1nc(NCCCN2CCOCC2)nc(SCCCCCC)n1 [S6^2N12 D8]	0.0
CCCCCCCCCCCCN(CCCCCCCCCCCC)c1nc(NCCCN2CCN(C)CC2)nc(SCCCCCC)n1 [S6^2N12 D9]	0.4
CCCCCCCCCCCCN(CCCCCCCCCCCC)c1nc(NCC2CCN(C)CC2)nc(SCCCCCC)n1 [S6^2N12 D10]	0.0
CCCCCCCSc1nc(NCCCCCC)nc(NCCN(C)C)n1 [S7N6 D1]	17.6
CCCCCCCSc1nc(NCCCCCC)nc(NCCN2CCOCC2)n1 [S7N6 D2]	1.8
CCCCCCCSc1nc(NCCCCCC)nc(NCCN2CCCC2)n1 [S7N6 D3]	34.7
CCCCCCCSc1nc(NCCCCCC)nc(NCCN2CCCCC2)n1 [S7N6 D4]	8.7
CCCCCCCSc1nc(NCCCCCC)nc(NCCN2CCN(C)CC2)n1 [S7N6 D5]	28.5
CCCCCCCSc1nc(NCCCCCC)nc(NCCCN(C)C)n1 [S7N6 D6]	27.2
CCCCCCCSc1nc(NCCCCCC)nc(NCCN(CC)CC)n1 [S7N6 D7]	11.2

SMILES	Absolute DNA transfection efficiency in HEK293 cells [%]
CCCCCCCSc1nc(NCCCCCC)nc(NCCCN2CCOCC2)n1 [S7N6 D8]	4.7
CCCCCCCSc1nc(NCCCCCC)nc(NCCCN2CCN(C)CC2)n1 [S7N6 D9]	20.3
CCCCCCCSc1nc(NCCCCCC)nc(NCC2CCN(C)CC2)n1 [S7N6 D10]	6.3
CCCCCCCNc1nc(NCCN(C)C)nc(SCCCCCCC)n1 [S7N7 D1]	23.6
CCCCCCCNc1nc(NCCN2CCOCC2)nc(SCCCCCCC)n1 [S7N7 D2]	2.5
CCCCCCCNc1nc(NCCN2CCCC2)nc(SCCCCCCC)n1 [S7N7 D3]	9.2
CCCCCCCNc1nc(NCCN2CCCCC2)nc(SCCCCCCC)n1 [S7N7 D4]	11.3
CCCCCCCNc1nc(NCCN2CCN(C)CC2)nc(SCCCCCCC)n1 [S7N7 D5]	33.5
CCCCCCCNc1nc(NCCCN(C)C)nc(SCCCCCCC)n1 [S7N7 D6]	33.5
CCCCCCCNc1nc(NCCN(CC)CC)nc(SCCCCCCC)n1 [S7N7 D7]	11.4
CCCCCCCNc1nc(NCCCN2CCOCC2)nc(SCCCCCCC)n1 [S7N7 D8]	5.3
CCCCCCCNc1nc(NCCCN2CCN(C)CC2)nc(SCCCCCCC)n1 [S7N7 D9]	10.9
CCCCCCCNc1nc(NCC2CCN(C)CC2)nc(SCCCCCCC)n1 [S7N7 D10]	8.6
CCCCCCCCNc1nc(NCCN(C)C)nc(SCCCCCCC)n1 [S7N8 D1]	15.6
CCCCCCCCNc1nc(NCCN2CCOCC2)nc(SCCCCCCC)n1 [S7N8 D2]	2.7
CCCCCCCCNc1nc(NCCN2CCCC2)nc(SCCCCCCC)n1 [S7N8 D3]	9.3
CCCCCCCCNc1nc(NCCN2CCCCC2)nc(SCCCCCCC)n1 [S7N8 D4]	15.5
CCCCCCCCNc1nc(NCCN2CCN(C)CC2)nc(SCCCCCCC)n1 [S7N8 D5]	22.1
CCCCCCCCNc1nc(NCCCN(C)C)nc(SCCCCCCC)n1 [S7N8 D6]	22.3
CCCCCCCCNc1nc(NCCN(CC)CC)nc(SCCCCCCC)n1 [S7N8 D7]	26.8
